# Results from ChEMBL document CHEMBL3525964 (Drug Metab Dispos, 2012).
# Experiments:
# Cytochrome P450 3A4 [1] = target: T1, Cytochrome P450 3A4 (Homo sapiens, UniProt P08684); assay: Fraction metabolized assessed as human recombinant CYP3A4-mediated drug depletion by LC-MS/MS method relative to total normalized intrinsic clearance; assay type: ADME; conditions: recombinant enzyme
# Cytochrome P450 3A4 [2] = target: T1, Cytochrome P450 3A4; assay: Drug metabolism in human liver microsomes assessed as CYP3A4-mediated drug depletion in presence of CYP3A4 inhibitor ketoconazole by LC-MS/MS method; assay type: ADME
# [3] = Drug excretion in feces of human treated with [14C}LY2452473 at 15 mg, po administered as single dose by HPLC analysis; assay type: ADME, organism-based; conditions: read-out: Drug excretion
# Plasma [4] = assay: Drug level in plasma of human treated with [14C}LY2452473 at 15 mg, po administered as single dose by LC-MS/MS method; assay type: ADME, organism-based; conditions: in vivo
# Cytochrome P450 2C8 = target: T2, Cytochrome P450 2C8 (Homo sapiens, UniProt P10632); assay: Drug metabolism assessed as human recombinant CYP2C8-mediated drug depletion by LC-MS/MS method; assay type: ADME; conditions: recombinant enzyme
# T2 sequence (P10632 whole entry): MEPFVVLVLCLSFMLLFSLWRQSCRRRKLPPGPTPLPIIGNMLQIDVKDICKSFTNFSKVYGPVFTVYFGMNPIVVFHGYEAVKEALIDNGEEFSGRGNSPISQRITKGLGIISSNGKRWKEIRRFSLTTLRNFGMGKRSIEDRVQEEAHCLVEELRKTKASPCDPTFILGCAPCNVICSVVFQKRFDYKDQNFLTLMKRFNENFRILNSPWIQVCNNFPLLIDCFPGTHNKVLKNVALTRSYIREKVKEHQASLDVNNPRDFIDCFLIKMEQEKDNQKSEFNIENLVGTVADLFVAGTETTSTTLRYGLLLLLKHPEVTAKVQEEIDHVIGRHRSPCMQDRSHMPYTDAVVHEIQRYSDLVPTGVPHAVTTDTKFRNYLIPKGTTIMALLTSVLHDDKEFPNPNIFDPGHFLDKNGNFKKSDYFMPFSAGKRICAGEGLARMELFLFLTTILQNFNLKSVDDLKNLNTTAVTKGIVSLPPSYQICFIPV
# Cytochrome P450 2E1 = Cytochrome P450 2E1 (Homo sapiens, UniProt P05181); assay: Drug metabolism assessed as human recombinant CYP2E1-mediated drug depletion by LC-MS/MS method; assay type: ADME; conditions: recombinant enzyme
# Cytochrome P450 3A5 = Cytochrome P450 3A5 (Homo sapiens, UniProt P20815); assay: Drug metabolism assessed as human recombinant CYP3A5-mediated drug depletion by LC-MS/MS method; assay type: ADME; conditions: recombinant enzyme
# Cytochrome P450 2C19 = Cytochrome P450 2C19 (Homo sapiens, UniProt P33261); assay: Intrinsic clearance assessed as human recombinant CYP2C19-mediated drug depletion per pmol protein by LC-MS/MS method; assay type: ADME; conditions: recombinant enzyme
# Cytochrome P450 3A4 [5] = target: T1, Cytochrome P450 3A4; assay: Intrinsic clearance assessed as human recombinant CYP3A4-mediated drug depletion per pmol protein by LC-MS/MS method; assay type: ADME; conditions: recombinant enzyme
# Cytochrome P450 2D6 [6] = target: T3, Cytochrome P450 2D6 (Homo sapiens, UniProt P10635); assay: Normalized intrinsic clearance assessed as human recombinant CYP2D6-mediated drug depletion per pmol protein by LC-MS/MS method; assay type: ADME; conditions: recombinant enzyme
# Cytochrome P450 3A4 [7] = target: T1, Cytochrome P450 3A4; assay: Normalized intrinsic clearance assessed as human recombinant CYP3A4-mediated drug depletion per pmol protein by LC-MS/MS method; assay type: ADME; conditions: recombinant enzyme
# Cytochrome P450 2C9 = Cytochrome P450 2C9 (Homo sapiens, UniProt P11712); assay: Fraction metabolized assessed as human recombinant CYP2C9-mediated drug depletion by LC-MS/MS method relative to total normalized intrinsic clearance; assay type: ADME; conditions: recombinant enzyme
# Cytochrome P450 2D6 [8] = target: T3, Cytochrome P450 2D6; assay: Fraction metabolized assessed as human recombinant CYP2D6-mediated drug depletion by LC-MS/MS method relative to total normalized intrinsic clearance; assay type: ADME; conditions: recombinant enzyme
# Cytochrome P450 2J2 = target: T4, Cytochrome P450 2J2 (Homo sapiens, UniProt P51589); assay: Fraction metabolized assessed as human recombinant CYP2J2-mediated drug depletion by LC-MS/MS method relative to total normalized intrinsic clearance; assay type: ADME; conditions: recombinant enzyme
# T4 sequence (P51589 whole entry): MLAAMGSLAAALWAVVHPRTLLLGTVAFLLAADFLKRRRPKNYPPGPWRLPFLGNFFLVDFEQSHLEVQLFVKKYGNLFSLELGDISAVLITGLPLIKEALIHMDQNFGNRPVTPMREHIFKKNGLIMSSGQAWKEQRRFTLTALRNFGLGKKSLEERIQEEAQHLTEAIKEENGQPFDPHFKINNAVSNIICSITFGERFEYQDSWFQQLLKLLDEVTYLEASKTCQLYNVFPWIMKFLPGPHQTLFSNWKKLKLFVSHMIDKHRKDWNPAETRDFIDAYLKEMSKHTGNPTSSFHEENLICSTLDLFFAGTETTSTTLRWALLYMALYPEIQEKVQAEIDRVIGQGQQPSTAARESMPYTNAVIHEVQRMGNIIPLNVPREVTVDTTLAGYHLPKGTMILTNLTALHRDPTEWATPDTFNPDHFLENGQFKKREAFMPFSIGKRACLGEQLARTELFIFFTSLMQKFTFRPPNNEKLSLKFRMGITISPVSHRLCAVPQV
# Homo sapiens [9] = assay: Cmax in human at 15 mg, po administered as single dose by liquid scintillation counting method; assay type: ADME, organism-based; parameters: dose 15 mg, route oral; conditions: in vivo
# Homo sapiens [10] = assay: Tmax in human at 15 mg, po administered as single dose by liquid scintillation counting method; assay type: ADME, organism-based; conditions: in vivo
# Homo sapiens [11] = assay: Tlast in human at 15 mg, po administered as single dose by liquid scintillation counting method; assay type: ADME, organism-based; conditions: in vivo
# Homo sapiens [12] = assay: AUC (0 to infinity) in human at 15 mg, po administered as single dose by liquid scintillation counting method; assay type: ADME, organism-based, Plasma; parameters: dose 15 mg, time infinity, route oral; conditions: in vivo
# Homo sapiens [13] = assay: Apparent volume of distribution during terminal phase in human at 15 mg, po administered as single dose by liquid scintillation counting method; assay type: ADME, organism-based; conditions: in vivo
# Plasma [14] = assay: Drug level in human plasma treated with [14C}LY2452473 at 15 mg, po after 4 hrs administered as single dose by HPLC analysis; assay type: ADME, organism-based; conditions: in vivo
# Plasma [15] = assay: Drug level in human plasma treated with [14C}LY2452473 at 15 mg, po after 48 hrs administered as single dose by HPLC analysis; assay type: ADME, organism-based; conditions: in vivo
# T1 sequence (P08684 whole entry): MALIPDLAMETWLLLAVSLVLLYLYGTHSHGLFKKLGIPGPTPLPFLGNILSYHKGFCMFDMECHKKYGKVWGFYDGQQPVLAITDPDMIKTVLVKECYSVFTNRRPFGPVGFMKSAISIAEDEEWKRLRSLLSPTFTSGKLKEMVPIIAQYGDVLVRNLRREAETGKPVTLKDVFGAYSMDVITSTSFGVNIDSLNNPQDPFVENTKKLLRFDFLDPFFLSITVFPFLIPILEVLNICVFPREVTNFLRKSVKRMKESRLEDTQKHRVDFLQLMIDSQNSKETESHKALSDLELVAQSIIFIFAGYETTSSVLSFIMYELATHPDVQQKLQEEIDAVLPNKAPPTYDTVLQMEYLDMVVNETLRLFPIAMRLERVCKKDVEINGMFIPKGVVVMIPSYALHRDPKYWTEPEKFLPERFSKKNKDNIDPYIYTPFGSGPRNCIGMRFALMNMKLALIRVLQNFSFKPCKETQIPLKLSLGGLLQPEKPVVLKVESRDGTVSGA
# T3 sequence (P10635 whole entry): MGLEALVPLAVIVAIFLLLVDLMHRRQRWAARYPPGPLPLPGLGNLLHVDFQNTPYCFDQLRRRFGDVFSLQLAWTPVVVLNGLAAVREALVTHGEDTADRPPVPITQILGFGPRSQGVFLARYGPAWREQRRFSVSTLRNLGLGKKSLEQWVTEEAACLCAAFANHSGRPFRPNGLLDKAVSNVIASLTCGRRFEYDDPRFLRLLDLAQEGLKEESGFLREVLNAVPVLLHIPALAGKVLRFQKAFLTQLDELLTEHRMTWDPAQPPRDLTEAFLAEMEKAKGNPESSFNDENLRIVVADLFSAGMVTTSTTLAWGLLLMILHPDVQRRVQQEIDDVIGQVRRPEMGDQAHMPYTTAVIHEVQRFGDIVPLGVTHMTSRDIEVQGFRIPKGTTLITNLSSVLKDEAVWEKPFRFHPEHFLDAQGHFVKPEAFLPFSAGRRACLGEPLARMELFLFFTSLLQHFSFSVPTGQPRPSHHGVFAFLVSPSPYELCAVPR
# Cytochrome P450 2C19, sequence (P33261 whole entry): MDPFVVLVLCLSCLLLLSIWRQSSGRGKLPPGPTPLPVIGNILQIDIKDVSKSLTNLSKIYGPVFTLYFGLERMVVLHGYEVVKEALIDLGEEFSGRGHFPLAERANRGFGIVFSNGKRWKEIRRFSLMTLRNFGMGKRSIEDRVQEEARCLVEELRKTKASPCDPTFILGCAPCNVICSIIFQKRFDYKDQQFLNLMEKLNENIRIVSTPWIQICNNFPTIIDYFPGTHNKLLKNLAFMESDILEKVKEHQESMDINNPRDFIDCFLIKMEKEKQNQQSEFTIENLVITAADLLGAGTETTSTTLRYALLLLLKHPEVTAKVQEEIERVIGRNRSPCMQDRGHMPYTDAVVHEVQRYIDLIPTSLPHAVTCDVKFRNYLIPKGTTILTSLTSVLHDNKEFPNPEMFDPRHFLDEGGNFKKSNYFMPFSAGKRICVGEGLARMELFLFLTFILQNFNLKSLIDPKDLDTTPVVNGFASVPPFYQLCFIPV
# Cytochrome P450 2E1, sequence (P05181 whole entry): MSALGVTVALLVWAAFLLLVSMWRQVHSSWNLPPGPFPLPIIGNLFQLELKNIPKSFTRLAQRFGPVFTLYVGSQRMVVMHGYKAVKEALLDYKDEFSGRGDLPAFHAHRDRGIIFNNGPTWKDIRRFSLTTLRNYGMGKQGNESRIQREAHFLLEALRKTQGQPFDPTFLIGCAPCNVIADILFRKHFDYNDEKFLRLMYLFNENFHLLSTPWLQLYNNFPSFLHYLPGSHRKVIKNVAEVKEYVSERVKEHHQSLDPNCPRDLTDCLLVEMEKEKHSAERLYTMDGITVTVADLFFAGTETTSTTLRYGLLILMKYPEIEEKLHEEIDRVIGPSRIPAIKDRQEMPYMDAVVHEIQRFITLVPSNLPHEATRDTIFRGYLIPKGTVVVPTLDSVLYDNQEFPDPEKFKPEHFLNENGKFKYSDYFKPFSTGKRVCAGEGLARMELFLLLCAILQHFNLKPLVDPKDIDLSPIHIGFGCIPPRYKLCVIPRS
# Cytochrome P450 2C9, sequence (P11712 whole entry): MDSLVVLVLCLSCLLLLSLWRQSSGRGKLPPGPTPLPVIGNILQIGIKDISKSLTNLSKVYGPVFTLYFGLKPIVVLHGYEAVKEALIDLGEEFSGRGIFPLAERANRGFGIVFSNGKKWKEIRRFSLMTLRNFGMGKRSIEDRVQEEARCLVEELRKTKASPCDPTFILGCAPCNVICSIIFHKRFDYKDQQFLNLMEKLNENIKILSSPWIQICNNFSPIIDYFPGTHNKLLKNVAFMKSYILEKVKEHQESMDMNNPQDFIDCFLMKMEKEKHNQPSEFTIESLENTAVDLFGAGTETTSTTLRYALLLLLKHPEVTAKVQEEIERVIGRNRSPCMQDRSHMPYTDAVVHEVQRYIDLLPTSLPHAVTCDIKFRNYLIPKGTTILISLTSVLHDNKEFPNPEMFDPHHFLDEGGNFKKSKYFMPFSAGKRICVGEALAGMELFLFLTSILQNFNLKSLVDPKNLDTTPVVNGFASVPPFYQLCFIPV
# Cytochrome P450 3A5, sequence (P20815 whole entry): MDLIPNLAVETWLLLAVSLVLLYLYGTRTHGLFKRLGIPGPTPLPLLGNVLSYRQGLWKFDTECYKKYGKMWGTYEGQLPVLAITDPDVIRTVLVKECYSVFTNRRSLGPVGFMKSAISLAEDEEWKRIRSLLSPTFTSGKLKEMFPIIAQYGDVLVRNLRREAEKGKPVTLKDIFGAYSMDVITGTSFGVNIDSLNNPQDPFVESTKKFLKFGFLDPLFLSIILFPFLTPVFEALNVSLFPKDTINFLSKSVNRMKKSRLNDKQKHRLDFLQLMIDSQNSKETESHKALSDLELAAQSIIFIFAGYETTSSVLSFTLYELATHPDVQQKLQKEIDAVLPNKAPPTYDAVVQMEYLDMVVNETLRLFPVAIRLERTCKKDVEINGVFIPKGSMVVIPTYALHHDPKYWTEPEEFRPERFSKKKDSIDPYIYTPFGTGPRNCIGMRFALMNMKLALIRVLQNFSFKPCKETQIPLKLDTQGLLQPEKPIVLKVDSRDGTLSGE
compound,measurement,setting,value
CC(C)OC(=O)N[C@H]1Cc2c(n(Cc3ccccn3)c3ccc(C#N)cc23)C1 [LY2452473],Fm,Cytochrome P450 3A4 [1],68%
same,Drug metabolism,Cytochrome P450 3A4 [2],metabolite_not_detected
same,dose excreted,[3],1.84%
same,Drug metabolism,Plasma [4],metabolite_detected
same,Drug metabolism,Cytochrome P450 2C8,metabolite_not_detected
same,Drug metabolism,Cytochrome P450 2E1,metabolite_not_detected
same,Drug metabolism,Cytochrome P450 3A5,metabolite_not_detected
same,CL,Cytochrome P450 2C19,0.3 µL/min
same,CL,Cytochrome P450 3A4 [5],0.75 µL/min
same,CL,Cytochrome P450 2D6 [6],3 µL/min
same,CL,Cytochrome P450 3A4 [7],80 µL/min
same,Fm,Cytochrome P450 2C9,8.5%
same,Fm,Cytochrome P450 2D6 [8],2.6%
same,Fm,Cytochrome P450 2J2,15%
same,Cmax,Homo sapiens [9],91.5 ng/mL
same,Tmax,Homo sapiens [10],2 h
same,Tlast,Homo sapiens [11],168 h
same,AUC,Homo sapiens [12],1330 ng·h/mL
same,Vz/F,Homo sapiens [13],444 L
same,Drug uptake,Plasma [14],66.33%
same,Drug uptake,Plasma [15],27.67%
